From patent publication US20220194962A1, “AZAZINOINDAZOLE DERIVATIVE, PREPARATION METHOD THEREFOR AND USE THEREOF” (CHENGDU SCIMOUNT PHARMATECH CO., LTD., priority 2019, published 2022)
Where two headings read alike, the source gives them in different places.

Biological target: T1, human 5-HT3 receptor (Homo sapiens, UniProt P46098)
T1 sequence (P46098 24-478): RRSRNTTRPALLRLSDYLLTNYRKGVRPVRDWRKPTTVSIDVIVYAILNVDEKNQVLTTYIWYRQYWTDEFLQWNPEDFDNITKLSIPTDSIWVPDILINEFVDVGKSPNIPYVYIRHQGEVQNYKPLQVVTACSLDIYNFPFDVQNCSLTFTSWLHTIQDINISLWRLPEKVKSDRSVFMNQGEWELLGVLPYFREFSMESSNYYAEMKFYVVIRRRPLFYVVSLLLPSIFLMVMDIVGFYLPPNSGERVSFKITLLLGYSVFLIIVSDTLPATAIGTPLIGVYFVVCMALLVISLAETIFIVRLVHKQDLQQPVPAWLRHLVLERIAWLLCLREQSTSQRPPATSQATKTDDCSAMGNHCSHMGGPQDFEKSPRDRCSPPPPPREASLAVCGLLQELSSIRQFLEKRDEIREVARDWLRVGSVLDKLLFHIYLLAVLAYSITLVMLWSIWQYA
Experiment: Affinity for human 5-HT3 receptor by scintillation proximity assay (SPA), [9-methyl-3H]BRL-43694 competition
Format: binding
Method: The relative affinity of the compound to human 5-HT3 receptor was detected by scintillation proximity assay (SPA). The specific procedures were as follows: the test compound was diluted to 10 mM with 100% DMSO, and then subjected to 10× gradient dilution with 100% DMSO in a 96-well plate, and each of the resultant solution was further diluted with the test buffer to provide 4× test concentration. The sample, 10 nM of [9-methyl-3H]BRL-43694, 3 μg of human 5-HT3 receptor membrane, and 0.5 mg/mL of SPA beads were incubated in 50 mM Tris-HCl (pH 7.5, 3 mM MgCl2, 1 mM EDTA and 10% DMSO), with a final volume of 0.2 mL. By successively adding 50 μL of competitive test compound or buffer, SPA beads, radioactive ligands and 5-HT3 receptor membrane, the binding reaction was performed in the wells of PicoPlates-96 well plate. After it was stirred and incubated overnight at room temperature, the plate was centrifuged at 1500 rpm for 15 min, and then incubated in dark for 30 min. Finally, the 5-min radioactivity was read in the TopCount microplate counter. Total binding control only contained the above buffer used to dilute the test compound, while the nonspecific binding was determined at the presence of 30 μM MDL-72222, and thus the specific binding was deduced by the total binding control minus the nonspecific binding. All experiments were carried out by ten concentrations of competitive ligand, and each group was established multiple holes. ALB-137391 was used as positive control.
ALB-137391 was a 5-HT3 receptor partial agonist, and provided by AMRI company, USA, with a production batch number of 1631-B-R0-01-43-01. The structure was as follows:
The half inhibitory concentration (IC50) was determined from the specific binding data by using XLfit4.1 curve fitting software of IDBS Ltd.
Inhibition constant Ki=IC50/(1+(L/KD)), wherein L=the concentration of radioactive ligands in the test, KD=the affinity of radioactive ligands to receptors.

Compound | IC50 [nM] | Ki [nM] | affinity to human 5-HT3 receptor (in words) (summary of Table 1) | IC50 (human 5-HT3 receptor membrane, 10 nM [9-methyl-3H]BRL-43694, SPA, overnight at room temperature, read-out: IC50) [nM] | affinity and inhibitory effect on 5-HT3 receptor compared with positive control ALB-137391 (summary of Table 1)
O=C1c2ccc(Br)c3[nH]nc(c23)CCN1[C@@H]1CN2CCC1CC2 [Compound 10, (S)-3-bromo-7-(quinuclidin-3-yl)-2,7,8,9-tetrahydro-6H-azepino[5,4,3-cd]indazole-6-one] | 34.2 | 6.2 | strong affinity |  | 
O=C1c2ccc(O)c3[nH]nc(c23)CCN1[C@@H]1CN2CCC1CC2 [Compound 12, (S)-3-hydroxyl-7-(quinuclidin-3-yl)-2,7,8,9-tetrahydro-6H-azepino[5,4,3-cd]indazole-6-one] | 14 | 2.53 | strong affinity |  | 
N#Cc1ccc2c3c(n[nH]c13)CCN([C@@H]1CN3CCC1CC3)C2=O [Compound 11, (S)-3-cyano-7-(quinuclidin-3-yl)-2,7,8,9-tetrahydro-6H-azepino[5,4,3-cd]indazole-6-one] |  | 65.1 |  | 359 | 
O=C1c2ccc(F)c3[nH]nc(c23)CCN1[C@@H]1CN2CCC1CC2 [Compound 14, (S)-3-fluoro-7-(quinuclidin-3-yl)-2,7,8,9-tetrahydro-6H-azepino[5,4,3-cd]indazole-6-one] | 74 | 13.4 | strong affinity |  | 
O=C1c2ccc(Cl)c3[nH]nc(c23)CCN1[C@@H]1CN2CCC1CC2 [Compound 15, (S)-3-chloro-7-(quinuclidin-3-yl)-2,7,8,9-tetrahydro-6H-azepino[5,4,3-cd]indazole-6-one] | 47.1 | 8.53 | strong affinity |  | 
O=C1c2cccc3[nH]nc(c23)CCN1[C@@H]1CN2CCC1CC2 [ALB-137391, reference compound] | 4.48 | 0.81 |  |  | 
[2H]c1ccc2c3c(n[nH]c13)CCN([C@@H]1CN3CCC1CC3)C2=O [Compound 13, (S)-3-deutero-7-(quinuclidin-3-yl)-2,7,8,9-tetrahydro-6H-azepino[5,4,3-cd]indazole-6-one] | 3.31 | 0.6 | strong affinity |  | even better than that of positive control ALB-137391
